pEC50: −log10 of the molar value. Several values for one entry are separate records, joined by “and”; a condition that tells them apart may be missing. Identical values can stand only once. Like-named read-outs stand apart in the source and are kept apart here.
How the values were obtained:
WT HIV-1 = details: cited from earlier work
HIV-1 Y181C variant [1] = details: read-out: activity for the Y181C-containing variant; cited from earlier work
HIV-1 Y181C variant [2] = details: read-out: EC50 Y181C; Literature data, MT4 cells; cited from earlier work
[3] = tested on: HIV-1 K103N/Y181C variant; details: read-out: EC50 K103N/Y181C; Literature data, MT4 cells; cited from earlier work
[4] = tested on: IIIB strain of HIV-1 (WT); assay: Anti-HIV-1 activity in infected MT-2 human T-cells, MTT colorimetric method; assay type: cell-based; details: for gain in potency: in going from 1
[5] = read-out: activity for WT HIV-1

**Q.** With `Cc1cc(/C=C/C#N)cc(C)c1Nc1ccnc(Nc2ccc(C#N)cc2)n1` [compound 39, 4-[[4-[[4-[(1E)-2-cyanoethenyl]-2,6-dimethylphenyl]amino]-2-pyrimidinyl]amino]benzonitrile] as the molecule, how does the pEC50 (WT HIV-1; [5]) read?
**A.** The pEC50 was over 8.30.

**Q.** And the pEC50 (HIV-1 Y181C variant [1])?
**A.** The pEC50 was over 8.30.

**Q.** With `CCc1c(C)[nH]c(=O)c(I)c1Oc1cccc(/C=C/C#N)c1` [compound 38] as the molecule, how does the pEC50 (WT HIV-1; [5]) read?
**A.** Its pEC50 is over 8.30.

**Q.** What about the pEC50 (HIV-1 Y181C variant [1]) of the same molecule?
**A.** Its pEC50 is over 8.30.

**Q.** With `Cc1ccnc2c1NC(=O)c1cccnc1N2C1CC1` [nevirapine] as the molecule, how does the pEC50 (HIV-1 Y181C variant [2]) read?
**A.** Its pEC50 is under 5.00.

**Q.** What about the pEC50 [3] of the same molecule?
**A.** Its pEC50 is under 5.00.

**Q.** Which “worsening of the EC50 value” ([4]; relative to 31) does the source give for `N#Cc1ccc(Oc2cc(Cl)ccc2Cl)c(OCCc2ccncc2)c1` [compound 33] here?
**A.** The value was 18 fold.

**Q.** For `O=c1ccn(CCOc2ccc(Cl)cc2Cc2c(Cl)cccc2Cl)c(=O)[nH]1` [compound 11], which gain in potency [4] is on record?
**A.** The gain in potency was “ca. 15 fold”.

**Q.** With `Cc1cc(C)cc(Oc2c(CSCc3ccco3)c(C)[nH]c(=O)c2I)c1` [compound 3] as the molecule, how does the pEC50 (WT HIV-1; read-out: activity towards WT HIV-1) read?
**A.** Its pEC50 is 8.00 to 9.00 and 8.70.

**Q.** With `O=c1ccn(CCOc2ccc(Cl)cc2Cc2cc(Cl)ccc2Cl)c(=O)[nH]1` [compound 10] as the molecule, how does the gain in potency [4] read?
**A.** Its gain in potency is “ca. 15 fold”.

From article PMC3258498 (Journal of Medicinal Chemistry, 2011)
